Among the data in US20120028888A1, “APJ RECEPTOR COMPOUNDS” (priority 2008, published 2012) are EC50 values, retold here.

Non-standard residues stand in square brackets, D forms with d. Residues, ends and D or L forms follow the SMILES beside them. ξ: configuration not given here. *: point of attachment. Palmitoyl = CCCCCCCCCCCCCCCC(=O)*; X1 = CCCCCCCCCCCOCCCC(=O)*; ξR = N=C(N)NCCCC(N)C(=O)O Bounds are passed on as bounds.

The assay concerns the target T1, Gi-coupled receptor APJ (HEK cells stably expressing the APJ receptor) (Homo sapiens, UniProt P35414).
T1 construct: expressed in transfected cells; host or cells: HEK cells stably expressing APJ
T1 sequence (P35414 1-380): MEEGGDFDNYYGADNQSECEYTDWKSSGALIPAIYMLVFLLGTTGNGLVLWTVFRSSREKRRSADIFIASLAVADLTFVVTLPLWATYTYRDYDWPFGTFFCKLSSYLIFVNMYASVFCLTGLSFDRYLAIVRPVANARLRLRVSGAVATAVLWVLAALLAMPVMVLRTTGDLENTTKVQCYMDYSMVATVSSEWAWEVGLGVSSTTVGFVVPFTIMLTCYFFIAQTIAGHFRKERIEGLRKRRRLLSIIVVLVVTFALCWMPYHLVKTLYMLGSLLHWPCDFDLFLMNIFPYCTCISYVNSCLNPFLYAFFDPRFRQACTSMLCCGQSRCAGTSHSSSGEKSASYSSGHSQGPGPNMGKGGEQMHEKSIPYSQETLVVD
The assay can be described thus: HTRF cAMP assay: inhibition of NKH477 stimulated increase in cAMP. The format is cell-based. The note with it: read-out: EC50 value (nM), SEM. From the text: HTRF (homogeneous time resolved fluorescence) is a technology developed by Cisbio Bioassays based on TR-FRET (time-resolved fluorescence resonance energy transfer). Cisbio Bioassays has developed a wide selection of HTRF-based assays compatible with whole cells, thereby enabling functional assays to run under more physiological conditions. The IP-One assays are competitive immunoassays using cryptate-labeled anti-IPI monoclonal antibody and d2-labeled IP1. IP1 is a relatively stable downstream metabolite of IP3, and accumulates in cells following Gq receptor activation.
cAMP kits based on a competitive immunoassay using cryptate-labeled anti-cAMP antibody and d2-labeled cAMP were used to assay the effects of APJ compounds of the present invention. This assay measures the increase in intracellular cAMP upon Gs-coupled receptor activation as well as decrease in forskolin (or a more soluble version of forskolin—NKH477) stimulated increase in cAMP upon Gi-coupled receptor activation.
Background: In TR-FRET formats the signal depends on donor and acceptor labels being close together.
Turning to `CCCCCCCCCCCOCCCC(=O)N[C@H](C(=O)N[C@H](C(=O)N[C@@H](Cc1ccccc1)C(=O)N[C@@H](CCCNC(=N)N)C(=O)N[C@@H](CO)C(=O)N[C@@H](CO)C(=O)N[C@@H](CCCNC(=N)N)C(=O)N[C@@H](CCC(=O)O)C(=O)N[C@@H](CCCCN)C(=O)N[C@@H](CCCNC(=N)N)C(=O)N[C@@H](CCCNC(=N)N)C(=O)N[C@@H](CO)C(=O)N[C@@H](C)C(=O)N[C@@H](CC(=O)O)C(=O)N[C@H](C(=O)N[C@@H](Cc1ccccc1)C(=O)N[C@H](C(N)=O)[C@@H](C)CC)[C@@H](C)CC)C(C)C)[C@@H](C)O` [Compound 60] (X1-TVFRSSREKRRSADIFI-NH2), the EC50 (usually the concentration needed to bring the measured effect to its halfway point) was in the range of 1 to 500 nM.

Take `CCCCCCCCCCCCCCCC(=O)N[C@@H](CCCNC(=N)N)C(=O)N1CCC[C@H]1C(=O)N[C@H](C(=O)N[C@@H](C)C(=O)N[C@@H](CC(N)=O)C(=O)N[C@@H](C)C(=O)N[C@@H](CCCNC(=N)N)C(=O)N[C@@H](CC(C)C)C(=O)N[C@@H](CCCNC(=N)N)C(=O)N[C@@H](CC(C)C)C(=O)N[C@@H](CCCNC(=N)N)C(=O)N[C@H](C(=O)N[C@@H](CO)C(=O)NCC(N)=O)C(C)C)C(C)C` [Compound 75] (Palmitoyl-RPVANARLRLRVSG-NH2): the EC50 is over 10000 nM.

Take `CCCCCCCCCCCCCCCC(=O)N[C@H](C(=O)N[C@@H](CCCNC(=N)N)C(=O)N1CCC[C@H]1C(=O)N[C@H](C(=O)N[C@@H](C)C(=O)N[C@@H](CC(N)=O)C(=O)N[C@@H](C)C(=O)N[C@@H](CCCNC(=N)N)C(=O)N[C@@H](CC(C)C)C(=O)N[C@@H](CCCNC(=N)N)C(=O)N[C@@H](CC(C)C)C(=O)N[C@@H](CCCNC(=N)N)C(=O)N[C@H](C(=O)N[C@@H](CO)C(=O)NCC(N)=O)C(C)C)C(C)C)C(C)C` [Compound 76] (Palmitoyl-VRPVANARLRLRVSG-NH2): the EC50 is over 10000 nM.

Regarding `CCCCCCCCCCCCCCCC(=O)N[C@H](C(=O)N[C@H](C(=O)N[C@@H](CCCNC(=N)N)C(=O)N1CCC[C@H]1C(=O)N[C@H](C(=O)N[C@@H](C)C(=O)N[C@@H](CC(N)=O)C(=O)N[C@@H](C)C(=O)N[C@@H](CCCNC(=N)N)C(=O)N[C@@H](CC(C)C)C(=O)N[C@@H](CCCNC(=N)N)C(=O)N[C@@H](CC(C)C)C(=O)N[C@@H](CCCNC(=N)N)C(=O)N[C@H](C(=O)N[C@@H](CO)C(=O)NCC(N)=O)C(C)C)C(C)C)C(C)C)[C@@H](C)CC` [Compound 77] (Palmitoyl-IVRPVANARLRLRVSG-NH2), the EC50 was over 10000 nM.

With `CCCCCCCCCCCCCCCC(=O)N[C@@H](C)C(=O)N[C@H](C(=O)N[C@H](C(=O)N[C@@H](CCCNC(=N)N)C(=O)N1CCC[C@H]1C(=O)N[C@H](C(=O)N[C@@H](C)C(=O)N[C@@H](CC(N)=O)C(=O)N[C@@H](C)C(=O)N[C@@H](CCCNC(=N)N)C(=O)N[C@@H](CC(C)C)C(=O)N[C@@H](CCCNC(=N)N)C(=O)N[C@@H](CC(C)C)C(=O)N[C@@H](CCCNC(=N)N)C(=O)N[C@H](C(=O)N[C@@H](CO)C(=O)NCC(N)=O)C(C)C)C(C)C)C(C)C)[C@@H](C)CC` [Compound 78] (Palmitoyl-AIVRPVANARLRLRVSG-NH2), the EC50 is over 10000 nM.

Regarding `CCCCCCCCCCCCCCCC(=O)N[C@H](C(=O)N[C@@H](CCCNC(=N)N)C(=O)N1CCC[C@H]1C(=O)N[C@H](C(=O)N[C@@H](C)C(=O)N[C@@H](CC(N)=O)C(=O)N[C@@H](C)C(=O)N[C@@H](CCCNC(=N)N)C(=O)N[C@@H](CC(C)C)C(=O)NC(CCCNC(=N)N)C(N)=O)C(C)C)C(C)C` (stereo partly shown) [Compound 80] (Palmitoyl-VRPVANARL[ξR]-NH2), the EC50 was over 10000 nM.

For the molecule `CCCCCCCCCCCCCCCC(=O)N[C@H](C(=O)N[C@@H](CCCNC(=N)N)C(=O)N1CCC[C@H]1C(=O)N[C@H](C(=O)N[C@@H](C)C(=O)N[C@@H](CC(N)=O)C(=O)N[C@@H](C)C(=O)N[C@@H](CCCNC(=N)N)C(=O)N[C@@H](CC(C)C)C(N)=O)C(C)C)C(C)C` [Compound 81] (Palmitoyl-VRPVANARL-NH2), the EC50 is over 10000 nM.
